Measurements published in paper PMC5612753, “New lipases by mining of Pleurotus ostreatus genome” (PLoS ONE, 2017).

Columns and labels:
[1] = system: T1, PleoLip369; assay: spectrophotometric p-nitrophenol release, […] nm; non-linear regression; assay type: biochemical, Pleurotus ostreatus; details: pH 8; substrate 0.001-1 mM
T1 construct: signal peptide removed, codon-optimised synthetic gene behind alpha-factor signal, secreted from Pichia pastoris BG-10, purified by CM Sepharose; catalytic Ser266, Asp394, His512, pentapeptide GESAG

[2] = system: T2, PleoLip241; assay: as above; assay type: biochemical, Pleurotus ostreatus; details: pH 8; substrate 0.001-1 mM
T2 construct: signal peptide removed, codon-optimised synthetic gene behind alpha-factor signal, secreted from Pichia pastoris BG-10, purified by CM Sepharose; catalytic Ser273, Asp403, His520, pentapeptide GQSAG

| Km [1] | Km [2] | SMILES |
| --- | --- | --- |
| 510 ± 60 µM | – | CCCCCCCC(=O)Oc1ccc([N+](=O)[O-])cc1 [pNP-C8, p-nitrophenyl octanoate] |
| 130 ± 20 µM | 30 ± 5 µM | CCCCCCCCCC(=O)Oc1ccc([N+](=O)[O-])cc1 [pNP-C10, p-nitrophenyl decanoate] |
| 652 ± 75 µM | 150 ± 6 µM | CCCCCCCCCCCC(=O)Oc1ccc([N+](=O)[O-])cc1 [pNP-C12, p-nitrophenyl dodecanoate] |
| – | 85 ± 4 µM | CCCCCCCCCCCCCC(=O)Oc1ccc([N+](=O)[O-])cc1 [pNP-C14, p-nitrophenyl myristate] |
| – | 350 ± 38 µM | CCCCCCCCCCCCCCCC(=O)Oc1ccc([N+](=O)[O-])cc1 [pNP-C16, p-nitrophenyl palmitate] |
